What all share (assay type): physicochemical
A short description of series [1]: Gravimetric Vapour Sorption (GVS). As for the experimental part: Sorption isotherms were obtained using a SMS DVS Intrinsic moisture sorption analyser, controlled by SMS Analysis Suite software. The sample temperature was maintained at 25° C. by the instrument controls. The humidity was controlled by mixing streams of dry and wet nitrogen, with a total flow rate of 200 ml.min^−1. The relative humidity was measured by a calibrated Rotronic probe (dynamic range of 1.0-100% RH), located near the sample. The weight change, (mass relaxation) of the sample as a function of % RH was constantly monitored by the microbalance (accuracy ±0.005 mg). Typically 5-20 mg of sample was placed in a tared mesh stainless steel basket under ambient conditions. The sample was loaded and unloaded at 40% RH and 25° C. (typical room conditions). A moisture sorption isotherm was performed as outlined below (2 scans giving 1 complete cycle). The standard isotherm was performed at 25° C. at 10% RH intervals over a 0.5-90% RH range.
The hygroscopicity of the citrate was investigated by carrying out a gravimetric vapour sorption experiment on Batch 4. A sample of approximately 20 mg was held at 25° C. whilst the humidity of its environment was changed through two complete cycles. […] The sample takes longer to reach equilibrium in the early stages of the experiment. This may be due to displacement of residual solvent.

Series [2] can be described thus: Solubility assessment (solvent added in 10 volume aliquots).
Assay in series [3]: as above
The procedure:
For each solvent investigated, approximately 8 mg of compound 1 was weighed into an 8 ml screw top glass vial. The solvent was added in 10 volume aliquots and the mixture sonicated and warmed (with a hot-air gun) to encourage dissolution. If dissolution was not achieved after the addition of 100 volumes of solvent, a further 100 volumes was added.
The source holds these as a separate data set.

The nature of series [4]: Polymorphism assessment (XRPD after 25° C./50° C. cycles in solvent). As for the experimental part: The vials were then placed in a humidity chamber and subjected to cycles of 25° C./50° C. (8 hour cycles) for 24 hours. At the end of this time the samples were examined and then left with loosened lids to allow for evaporation of the solvent. Those samples which had dried out were then transferred to a quartz array, whilst those for which there was still solvent present, were filtered under vacuum onto a sinter. The samples were then analysed by XRPD to assess their crystalline state and form.

A short description of series [5]: Thermogravimetric Analysis (TGA). As for the experimental part:
Thermogravimetric Analysis (TGA) data were collected on a Mettler TGA/SDTA 851e equipped with a 34 position autosampler. The instrument was temperature calibrated using certified indium. Typically 5-30 mg of each sample was loaded onto a pre-weighed aluminium crucible and was heated at 10° C.min^−1 from ambient temperature to 350° C. A nitrogen purge at 50 ml.min^−1 was maintained over the sample. The instrument control and data analysis software was STARe v9.10.

Series [6] is described as follows: Phase stability by XRPD after storage at 40° C. and 75% relative humidity for one week. To be noted: solid form by low resolution XRPD after one week. The procedure:
Condition 2 (Low Resolution)
X-Ray Powder Diffraction patterns were also collected on a Bruker D8 diffractometer using Cu K[…] radiation (40 kV, 40 mA), θ-2θ goniometer, and divergence of V4 and receiving slits, a Ge monochromator and a Lynxeye detector. The instrument is performance checked using a certified Corundum standard (NIST 1976). The software used for data collection was Diffrac Plus XRD Commander v2.5.0 and the data were analysed and presented using Diffrac Plus EVA v 11.0.0.2 or v 13.0.0.2. Samples were run under ambient conditions as flat plate specimens using powder as received. Approximately 15 mg of the sample was gently packed into a cavity cut into polished, zerobackground (510) silicon wafer. The sample was rotated in its own plane during analysis. The details of the data collection are:
The samples which had been prepared for the collection of low resolution XRPD traces were placed in a chamber maintained at 40° C. and 75% relative humidity. After one week the samples were reanalysed by low resolution XRPD (Condition 2), to check for phase changes. It can be seen that no phase change has occurred, and that citrate salts of the invention are stable for at least one week under these conditions.

Series [7] can be described thus: Differential Scanning Calorimetry (DSC). To be noted: heated at 10° C.min^−1. The procedure: Differential Scanning Calorimetry (DSC) data were collected on a Mettler DSC 823e equipped with a 34 position auto-sampler. The instrument was calibrated for energy and temperature using certified indium. Typically 0.5-3 mg of each sample, in a pin-holed aluminium pan, was heated at 10° C.min^−1 from 25° C. to 350° C. A nitrogen purge at 50 ml.min^−1 was maintained over the sample. The instrument control and data analysis software was STARe v9.10.
In general terms: DSC measures the heat that a sample takes up or gives off during a temperature scan.

Structures are written as SMILES. Counter-ions that a name gives are not always drawn.

For the compound `C1=C2COC/C=C/COCc3cc(ccc3OCCN3CCCC3)Nc3nccc(n3)C(=C1)O2` [citrate, 9E-15-(2-pyrrolidin-1-yl-ethoxy)-7,12,25-trioxa-19,21,24-triaza-tetracyclo[18.3.1.1(2,5).1(14,18)]hexacosa-1(24),2,4,9,14,16,18(26),20,22-nonaene citrate], the hygroscopicity entry in series [1] (GVS, 0% RH to 90% RH) is given as “not hygroscopic”. For the same compound, the maximum weight difference entry in series [1] (between 0% RH and 90% RH, 25° C.) was “less than 1 % w/w”. The “level at which the salt dissolves in water” value in series [2] was no less than 100000 µg/mL. Besides, the “solubility in organic solvents” value in series [3] (organic solvents of the screen) is “extremely limited”. Also, the “solid form of recovered solid (XRPD)” value in series [4] (aqueous solution allowed to evaporate) is on record as “amorphous”. Also, the “solid form of residues (XRPD)” value in series [4] (organic solvent screening samples) is “Form 1”.

`C1=C2COC/C=C/COCc3cc(ccc3OCCN3CCCC3)Nc3nccc(n3)C(=C1)O2` [Compound I, 9E-15-(2-pyrrolidin-1-yl-ethoxy)-7,12,25-trioxa-19,21,24-triaza-tetracyclo[18.3.1.1(2,5).1(14,18)]hexacosa-1(24),2,4,9,14,16,18(26),20,22-nonaene]: the “total dissolution in solvent screen” value in series [3] (11 solvents, up to 200 volumes) was “total dissolution was only achieved in water”.

For `C1=C2COC/C=C/COCc3cc(ccc3OCCN3CCCC3)Nc3nccc(n3)C(=C1)O2` [Batch 6], the “Thermogravimetric Analysis weight change” value was −20% w/w 160 to 250 °C in series [5] (160 to 250° C.) and −0.3% w/w ambient to in series [5] (ambient to 160° C.). The “Phase Stability 1 wk @ 40° C./75% RH” value in series [6] is recorded as “Crystalline Form 1”. The “Differential Scanning Calorimetry complex endotherm onset (significant thermal event)” value in series [7] was “onset 176 °C”.

(Values after patent US9062074B2, “(9E)-15-(2-pyrrolidin-1-yl-ethoxy)-7,12,25-trioxa-19,21,24-triaza-tetracyclo[18.3.1.1(2.5).1(14,18)]hexacosa-1(24),2,4,9,14,16,18(26),20,22-nonaene citrate salt” (CTI BioPharma Corp., priority 2009, dated 2015).)
